Measured values: patent publication US11287416B2, “Cancer” (NEURO-BIO LTD, priority 2016, dated 2022)
Entries after “also recorded” stand apart in the source; their conditions may differ. Square brackets hold non-standard residues; d marks the D form. Peptide text beside a SMILES is read from it. Bpa = N[C@@H](Cc1ccc(C(=O)c2ccccc2)cc1)C(=O)O; Phe(4-NH2) = Nc1ccc(C[C@H](N)C(=O)O)cc1; hArg = N=C(N)NCCCC[C@H](N)C(=O)O

How the values were obtained:
Type in all cases: cell-based
[1] = system: AChE activity, PC12 cells; settings: for protection against T30-induced AChE activity: T30 1 μM combined with blocker
Description: AChE activity was measured using the Ellman reagent that measures the presence of thiol groups as a result of AChE activity. In the case of the G4 experiment, AChE (G4) activity was tested alone and also together with either NBP14 or Tri peptides. PC12 cells were plated the day before the experiment as for the cell viability assay. Cells were treated with T30 (1 μM) alone or combined with NBP14 or Tri peptide (0.5 μM). After treatment, supernatant (perfusate) of each treatment was collected and 25 μL from is each condition were added to a new flat bottomed 96 well plate followed by the addition of 175 μl of Ellman reagent (Solution A: KH2PO4 139 mM and K2HPO4 79.66 mM, pH 7.0; solution B (substrate): Acetylthiocholine Iodide 11.5 mM; Solution C (Reagent): 5,5′-dithiobis (2-nitrobenzoic acid) 8 mM and NaHCO15 mM). The Ellman reagent was prepared as a mixture of the 3 solutions in a ratio 33(A):3(B):4(C). Absorbance measurements were taken for an interval of 60 minutes across experiments at 405 nm in a Vmax plate reader (Molecular devices, Wokingham, UK).
(§1) In each of the different cell techniques, the statistics analysis was performed with the average of the percentage values of 3 or more experiments. Comparisons between multiple treatment groups and the same control were performed by one-way analysis of variance (ANOVA) and Tukey's post-hoc tests using GraphPAD Instat (GraphPAD software, San Diego, Calif.). Statistical significance was taken at a p value<0.05.

[2] = system: alpha7 nicotinic receptors, PC12 cells; assay: Calcium fluorometry (Fluo-8), PNU282987-induced calcium influx in PC12 cells; settings: PNU282987 1 μM; for protection against T30-induced calcium influx: T30 combined with blocker
Description: PC12 cells were plated in 200 μl of Dulbecco's Modified Eagle's medium (DMEM) plus 2 mM of L-glutamine medium the day before the experiment in 96 well plates. On the day of the experiment, the Fluo-8 solution (Abcam) was prepared as described by the provider by adding 20 μl of Fluo-8 in the assay buffer that contains 9 ml of Hank's Balanced Salt Solution (HBSS) and 1 ml of pluronic F127 Plus. Subsequently, 100 μl of growth medium was removed and 100 μl of Fluo-8 solution were added. Treatments with T30 in conjunction with NBP14 or Tri peptides were added and incubated for 30 minutes in the incubator and 30 minutes room temperature. After 1 h, the plate was placed in the fluorescence plate reader (Fluostar, Optima, BMG Labtech, Ortenberg, Germany). Before reading the fluorescence, PNU282987 1 μM, an alpha7 specific agonist of the nicotinic receptors, was prepared and placed in the Fluostar injector. For each well, the reading was formed by a basal fluorescence reading followed by PNU282987 injection that induced an increase of calcium via nicotinic receptors.
as §1

rat basal forebrain = assay: voltage-sensitive dye imaging (VSDI) on brain slices; settings: for magnitude (summed fluorescence) of evoked responses, compound alone: 4 μM in perfusate, no T30, rat basal forebrain slices
Description: Male Wistar rats (14 days old) were anaesthetised using isoflurane ([…], 100% w/w). Isoflurane was applied to the cotton bed at the bottom of an anaesthetic chamber (glass box 20×15×15 cm) where rats were then placed for approximately 45 s until complete anaesthesia was reached. The hind paw of each anaesthetised rat was pinched to check for the appropriate depth of anaesthesia. Upon confirmation of anaesthesia, rats were quickly decapitated, with the brain being quickly removed and immersed in ice cold oxygenated ‘slicing’ artificial cerebrospinal fluid (aCSF in mmol: 120 NaCl, 5 KCL, 20 NaHCO3, 2.4 CaCl2 2 MgSO4, 1.2 KH2PO4, 10 glucose, 6.7 HEPES salt and 3.3 HEPES acid; pH=7.1). Coronal slices (400 μm thick) were then taken from a block of brain containing the basal forebrain, namely the MS-dBB complex (between +9.20 and +9.48 mm Interaural and +0.48 and +0.2 mm Bregma, FIG. 4A) and the somatosensory barrel field cortex (SiBF, between +8.08 and +7.20 mm Interaural and −0.92 mm and −1.80 mm Bregma) (Paxinos and Watson, 1998) using a Vibratome (Leica VT1000S). Slices were then transferred to a bubbler pot containing oxygenated aCSF at room temperature (recording aCSF in mmol: 124 NaCl, 5 KCL, 20 NaHCO3, 2.4 CaCl2 2 MgSO4, 1.3 KH2PO4, 10 glucose; pH=7.4) which was identical to that used in VSDI (voltage sensitive dye imaging) recording. Slices were then left for approximately 1-1.5 hours before preparing them for VSD staining.
Slices were placed in a dark, high humidity chamber filled with aCSF bubbled with 95% O2, 5% CO2. Once there, the dye solution (4% 0.2 mM styryl dye pyridinium 4-[2-[6-(dibutylamino)-2-napthalenyl]-ethenyl]-1-(3-sulfopropyl)hydroxide(Di-4-NEPPS), Invitrogen, Paisley, UK in 48% aCSF, 48% foetal bovine serum, 3.5% DMSO and 0.4% cremophore EL) (Tominaga et al., 2000) was applied to the slices for 20-25 minutes before being transferred back to a bubbler pot containing oxygenated aCSF kept at room temperature for 30 minutes.
When starting the VSDI recordings, slices were placed in the recording bath on a small piece of filter paper to allow the flow of oxygenated aCSF on the underside of the slice and in order to keep it alive. The slice was then weighed down by a home-made plastic grid that was placed on top of the slice. The perfusing bath solution was heated to 30±1° C. by a stage heater. A concentric bipolar stimulating electrode (FHC, Maine, USA) was placed in the ventral diagonal band of the basal forebrain with stimulation being set to 30V. For the acquisition of VSD data, 2 dimensional images, equivalent to 88×60 pixels, were recorded using the MiCamo2 High Resolution camera (Brain Vision, Japan) with BV_Analyze imaging software. Acquisition of images was coupled to Spike2 V4.23 software (CED Ltd, Cambridge, UK) in order to align the image capture with the stimulation protocol (every 28 s with 30 repeats) via the Micro 1401 MkII. (CED Ltd, Cambridge, UK). Light was generated using an Osram halogen xenophot 64634 HLX EFR Display/Optic lamp and was filtered to emit green (530±10 nm) light using a MHF-G150LR (Moritex Corporation) coupled to the MiCamo2 High resolution imaging system and filtered the emitted fluorescence through a >590 nm high pass filter.
All drug and peptide stocks were prepared in frozen aliquots prior to experiments. For the production of perfusion solutions, stock solutions were thawed and added to recording aCSF as appropriate and bath applied at a constant rate of 1.5 ml/min perfusion using the Minipulse 3 peristaltic pump (Gilson Scientific Ltd., Bedfordshire, UK).

astroglia = assay: cell proliferation assay (trophic-toxic effects); settings: for toxic effect in cell proliferation assay: high concentration, 10 μM
[3] = co-perfusion 4 μM blocker with 2 uM T30

| Compound | protection against T30-induced AChE activity [1] | protection against T30-induced calcium influx [2] | magnitude (summed fluorescence) of evoked responses, compound alone (rat basal forebrain) | magnitude (summed fluorescence) of evoked responses, compound alone (rat basal forebrain; listed as Triol) | blocking of T30-induced effects on basal forebrain activity (rat basal forebrain; [3]) | blocking of T30-induced effects on basal forebrain activity (rat basal forebrain; co-perfusion 2 μM blocker with 2 μM T30, n=29) | cell proliferation, trophic effect on astroglia (astroglia; 1 pM peptide) [%] | cell proliferation, trophic effect on astroglia (astroglia; 10 pM peptide) [%] | toxic effect in cell proliferation assay (astroglia) | AChE activity ([1]; peptide alone, 1 μM) | calcium influx ([2]; peptide alone, 1 μM) | effect of T30 alone on evoked VSDI signal (rat basal forebrain; T30 2 uM, basal forebrain of p14 rats) |
| --- | --- | --- | --- | --- | --- | --- | --- | --- | --- | --- | --- | --- |
| CC(=O)N[C@@H](Cc1ccc2ccccc2c1)C(=O)N[C@@H](Cc1ccc(N)cc1)C(=O)N[C@@H](Cc1c[nH]c2ccccc12)C(N)=O [Tri02] (HELM PEPTIDE1{[ac].[O=C([C@H](Cc1ccc2ccccc2c1)N[*:1])[*:2]].[Nc1ccc(C[C@H](N[*:1])C(=O)[*:2])cc1].W.[am]}$$$$V2.0) | protects against the toxic effects of T30 | protects against the toxic effects of T30 | small alterations | recapitulates results seen with application of 4 μM NBP14 | not found to protect against T30-induced deviations from baseline; also recorded: some efficacy in blocking those T30-induced deviation | – | – | – | – | – | – | – |
| CC(=O)N[C@@H](Cc1ccc(C(=O)c2ccccc2)cc1)C(=O)N[C@@H](CCCCNC(=N)N)C(=O)N[C@@H](Cc1ccc(N)cc1)C(N)=O [Tri04] (Ac-[Bpa]-[hArg]-[Phe(4-NH2)]-NH2) | – | protects the toxic effects of T30 by reducing calcium influx | – | – | totally block the T30-induced effects; also recorded: recapitulates results previously seen with the application of 4 μM NBP14; also recorded: significant effect reversing T30 activity | significant effect on basal forebrain population activity; also recorded: reversal of the inhibitory effect of T30; also recorded: increase in network activity; also recorded: protective role | – | – | – | – | – | – |
| AEFHRWSSYMVHWK (listed as Homo sapiens) [Compound T14, toxic 14 amino acid peptide from the C-terminus of acetylcholinesterase] | – | – | – | – | – | – | 96±5 | 121±8 | equal toxic effects | – | – | – |
| KAEFHRWSSYMVHWKNQFDHYSKQDRCSDL (listed as Homo sapiens) [Compound T30, Acetylcholinesterase (AChE) C-terminus 30 amino acid peptide] | – | – | – | – | – | – | 120±4 | 135±9 | equal toxic effects | increases | increases | greatest deviation; also recorded: net inhibition |
| c[AEFHRWSSYMVHWK] (head-to-tail cyclised; listed as Homo sapiens) [NBP14] | protects against these toxic effects | protects against these toxic effects | small, non-significant alterations | – | totally block the T30-induced effects | – | – | – | – | – | – | – |
